{
  "source": "paper PMC10002375",
  "about": "“Synthesis of 3-(2-Alkylthio-4-chloro-5-methylbenzenesulfonyl)-2-(1-phenyl-3-arylprop-2-enylideneamino)guanidine Derivatives with Pro-Apoptotic Activity against Cancer Cells” (International Journal of Molecular Sciences, 2023)",
  "assay_type_in_all_cases": "cell-based, human",
  "key": {"[1]": {"test_system": "MCF-7 cells", "assay": "Cell morphology by light microscopy, MCF-7", "conditions": "MCF-7, 10 and 25 μM, 72 h", "experimental": "(§1) The evaluation of changes in cell morphology has been performed after incubation with compounds 24 and 31 for 72 h using light microscopy.\n(§2) The HeLa, MCF-7, and HCT-116 cells were seeded on 24-well plates (5 × 10^4/per well) in 1 mL of medium for 24 h. After that time, cells were treated with 24 and 31 for next 72 h. Cells were treated with 10 µM, 25 µM of 24, or 25 µM of 31. As a control, non-treated cells were used. Morphology of cells was observed after 72 h using light microscope Olympus IX83."}, "[2]": {"test_system": "HCT-116 cells", "assay": "Cell cycle distribution by flow cytometry, HCT-116", "conditions": "for cells in sub-G1 phase: 72 h, control 1.15%", "experimental": "(§3) The cell cycle distribution was measured by flow cytometry analysis after incubation of MCF-7, HeLa, and HCT-116 with compounds 24 and 31 for 72 h."}, "[3]": {"test_system": "MCF-7 cells", "assay": "Phosphatidylserine translocation (Annexin V-FITC/PI), MCF-7", "description": "(§4) One of the early indicators of apoptosis is the exposure of phosphatidylserine residues on the cell’s surface. Annexin V has a high affinity to phosphatidylserine and, as a conjugate to fluorescein isothiocyante (FITC), is widely used for detection of early apoptotic cells using flow cytometry. Detection of late-apoptotic or necrotic cells is achieved by using propidium iodide (PI) stain. Based on the obtained fluorescence, four subpopulations were found: PI-low/FITC-low (live cells), PI-high/FITC-low (necrotic cells), PI-low/FITC-high (early apoptotic cells), and PI-high/FITC-high (late apoptotic cells).\n(§5) Analysis was performed using FITC-conjugated annexin-V (Annexin V-FITC Apoptosis Kit I, BD Biosciences, San Jose, CA, USA) according to the manufacturer’s instructions (BD Biosciences) as described previously. HeLa, MCF-7, and HCT-116, after seeding to 24-well plates (5 × 10^4/per well) and 24 h incubation, were treated for 72 h with 24 or 31 (10/25 µM or 25 µM concentration respectively). Following treatment, cells were washed in PBS, centrifuged, and then resuspended in a binding buffer. Afterward, the cells were incubated for 15 min at 37 °C with FITC-conjugated annexin-V and propidium iodide. The samples were then analyzed using a LSR II flow cytometer (BD Biosciences) using 530 ± 25 nm (Annexin V-FITC) and 575 ± 26 nm (PI).\n(§6) The subpopulations were identified according to their fluorescence: PI-low/FITC-low (live cells), PI-high/FITC-low (necrotic cells), PI-low/FITC-high (early apoptotic cells), and PI-high/FITC-high (late apoptotic cells)."}, "[4]": {"test_system": "MCF-7 cells", "assay": "Cell cycle distribution by flow cytometry, MCF-7", "conditions": "for cells in sub-G1 phase: 72 h", "experimental": "as §3"}, "[5]": {"test_system": "HCT-116 cells", "assay": "Cell morphology by light microscopy, HCT-116", "conditions": "HCT-116, 10 and 25 μM, 72 h", "experimental": "as §1, §2"}, "[6]": {"test_system": "HCT-116 cells", "assay": "Mitochondrial membrane potential (JC-1, flow cytometry), HCT-116", "conditions": "HCT-116, 72 h, 24 at 10 or 25 μM, 31 at 25 μM", "description": "(§7) A decrease in mitochondrial potential is one of the earliest hallmarks of apoptosis. A common method for indication of cells with high and low Δψm is flow cytometry combined with specific fluorescent probes, such as JC-1 (5,5′,6,6′-tetrachloro-1,1′,3,3′-tetraethylbenzimidazolylcarbocyanine iodide). JC-1 accumulates in mitochondria and forms complexes (J aggregates) with red fluorescence in healthy cells with a normal ΔΨm, whereas in apoptotic cells with a low ΔΨm exists as a monomer with green fluorescence.\n(§8) Analyzed cells were seeded into wells of a 24-well plate at a density of 5 × 10^4 cells in 1000 µL, incubated overnight, and then the medium was exchanged for dilutions of reagents 24 and 31. Before the end of 72 h of incubation, MitoProbe JC-1 (25 µM) was added into each plate well. Carbonyl cyanide m-chlorophenylhydrazone CCCP (200 nM) as the mitochondrial oxidative phosphorylation uncoupler was added into the positive control 15 min before JC-1 was added. After 30 min of JC-1 staining, cells were washed with PBS and then trypsinized (Corning® 25-053CI). Cells suspended in PBS were analyzed by flow cytometry at λ excitation (ex) = 488 nm and λ emission (em) = 525/570 nm (LSR II BD Biosciences, San Jose, CA, USA)."}, "[7]": {"test_system": "HeLa (cervical cancer)", "assay": "MTT cell viability assay, HeLa", "experimental": "(§9) All chemicals, if not stated otherwise, were obtained from Sigma-Aldrich (St. Louis, MO, USA). The MCF-7 cell line was purchased from Cell Lines Services (Eppelheim, Germany), the HeLa and HCT-116 cell lines were obtained from the Department of Microbiology, Tumor and Cell Biology, Karolinska Institute (Stockholm, Sweden). Cells were cultured in Dulbecco’s modified Eagle’s medium (DMEM) supplemented with 10% fetal bovine serum, 2 mM glutamine, 100 units/mL penicillin, and 100 μg/mL streptomycin. Cultures were maintained in a humidified atmosphere with 5% CO2 at 37 °C in an incubator (HeraCell, Heraeus, Langenselbold, Germany).\n(§10) Cell viability was determined using the MTT (3-(4,5-dimethylthiazol-2-yl)-2,5-diphenyl-tetrazoliumbromide) assay. Stock solutions of the studied compounds were prepared in 100% DMSO. […] Cells were seeded in 96-well plates at a density of 5 × 10^3 cells/well and treated for 72 h with the examined compounds in the concentration range 1–100 μM (1, 10, 25, 50, and 100 μM). Following treatment, MTT (0.5 mg/mL) was added to the medium and cells were further incubated for 2 h at 37 °C. Cells were lysed with DMSO and the absorbance of the formazan solution was measured at 550 nm with a plate reader (1420 multilabel counter, Victor, Jügesheim, Germany). […] The experiment was performed in triplicate. Values are expressed as the mean ± SD of at least three independent experiments."}, "[8]": {"test_system": "MCF-7 cells", "assay": "Mitochondrial membrane potential (JC-1, flow cytometry), MCF-7", "conditions": "MCF-7, 72 h, 24 at 10 or 25 μM, 31 at 25 μM", "description": "as §7, §8"}, "[9]": {"test_system": "MCF-7 (breast cancer)", "assay": "MTT cell viability assay, MCF-7", "description": "The cytotoxic activity of the compounds 8–33 has been evaluated in MTT assays against three human cancer cell lines MCF-7 (breast cancer), HeLa (cervical cancer), and HCT-116 (colon cancer) and it was expressed as IC50 values in μM (Table 1).\nas §9, §10"}, "[10]": {"test_system": "HeLa cells", "assay": "Phosphatidylserine translocation (Annexin V-FITC/PI), HeLa", "conditions": "72 h", "description": "as §4, §5, §6"}},
  "data": [
    {"smiles": "Cc1cc(S(=O)(=O)NC(N)=NN=C(C=Cc2ccccc2O)c2ccccc2)c(SCc2ccccc2Cl)cc1Cl", "note": "[Compound 24, 3-{4-chloro-2-[(2-chlorophenyl)methylthio]-5-methylbenzenesulfonyl}-2-[3-(2-hydroxyphenyl)-1-phenylprop-2-enylideneamino]guanidine]", "values": [
      {"measurement": "changes in cell morphology", "setting": "[1]", "value": "apoptotic-like changes, such as shrinkage of the cells or detachment from the surface"},
      {"measurement": "cells in sub-G1 phase", "setting": "[2]; HCT-116, 10 μM", "value": 49.69, "unit": "%"},
      {"measurement": "cells in sub-G1 phase", "setting": "[2]; HCT-116, 25 μM", "value": 65.31, "unit": "%"},
      {"measurement": "effect on cell cycle distribution", "setting": "[2]; HCT-116, 72 h, 24 at 10 and 25 μM, 31 at 25 μM", "value": "significant increase in the cell distribution in the sub-G1 phase"},
      {"measurement": "induction of apoptosis (Annexin V-FITC/PI)", "setting": "[3]; MCF-7, 10 μM, 72 h", "value": "Induction of apoptosis"},
      {"measurement": "population of apoptotic cells (Annexin V-FITC/PI)", "setting": "[3]; MCF-7, 72 h, 24 at 10 or 25 μM, 31 at 25 μM", "value": "increased population of apoptotic cells"},
      {"measurement": "cells in sub-G1 phase", "setting": "[4]; MCF-7, 10 μM", "value": 5.22, "unit": "%"},
      {"measurement": "cells in sub-G1 phase", "setting": "[4]; MCF-7, 25 μM", "value": 7.53, "unit": "%"},
      {"measurement": "effect on cell cycle distribution", "setting": "[4]; MCF-7, 72 h, 24 at 10 and 25 μM, 31 at 25 μM", "value": "no significant effect on the cell cycle distribution"},
      {"measurement": "changes in cell morphology", "setting": "[5]", "value": "apoptotic-like changes, such as shrinkage of the cells or detachment from the surface"},
      {"measurement": "change of mitochondrial membrane potential (ΔΨm)", "setting": "[6]", "value": "remarkable decrease in ΔΨm"},
      {"measurement": "Selectivity Index HeLa/HaCaT", "setting": "[7]; HeLa versus HaCaT, from IC50 values", "value": 1.9},
      {"measurement": "IC50", "setting": "[7]; Homo sapiens, HeLa, MTT, 72 h", "value": "17 ± 0.5", "unit": "µM"},
      {"measurement": "change of mitochondrial membrane potential (ΔΨm)", "setting": "[8]", "value": "remarkable decrease in ΔΨm"},
      {"measurement": "IC50", "setting": "[9]; Homo sapiens, MCF7, MTT, 72 h", "value": "12 ± 0.6", "unit": "µM"},
      {"measurement": "Selectivity Index MCF-7/HaCaT", "setting": "[9]; MCF-7 versus HaCaT, from IC50 values", "value": 2.7},
      {"measurement": "level of late apoptotic cells (Annexin V-FITC/PI)", "setting": "[10]; 25 μM", "value": "significantly increased level of late apoptotic cells"},
      {"measurement": "population of apoptotic cells (Annexin V-FITC/PI)", "setting": "[10]; 24 at 10 or 25 μM, 31 at 25 μM", "value": "increased population of apoptotic cells"}
    ]}
  ]
}
